Results on two compounds are retold here after patent US11708500B2, “Solvent compounds for use as coalescents” (TBF ENVIRONMENTAL TECHNOLOGY INC., priority 2017, dated 2023).

Data set [1] can be described thus: XTR5 vs Texanol paint in Raycryl 1526 acrylic emulsion polymer. The conditions noted are these: Raycryl 1526 paint. An excerpt: (§1) Bis(1-butoxypropan-2-yl) carbonate (TreviSol, XTR5) was used as a direct replacement for other typical coalescents, such as, Texanol™, as follows.
The nature of data set [2]: XTR5 vs Texanol coating in Raycryl 1001 acrylic emulsion polymer. Conditions: Raycryl 1001 coating.
Source text: as §1

Data set [3] can be described thus: XTR5 vs Texanol coating in EPS 2708 acrylic emulsion polymer. Conditions: EPS 2708 coating.
Source text: as §1

Data set [4] can be described thus: Physical/chemical properties of XTR5.

Molecules are shown by their SMILES. Read-outs that look alike come from different tables or passages of the source.

Take `CC(C)C(=O)OCC(C)(C)C(O)C(C)C` (centres unmarked) [Texanol, 2-methyl-, 3-hydroxy-2,2,4-trimethylpentyl ester, reference compound]: in data set [1], the “Specific Gravity” value is listed as 1.25 g/cm3, the “VOC (Without Water)” value came to 95.0 g/L, the Viscosity came to 90 KU and the “Volume Solid %” value is 40.91%. Besides, the “Weight Solid %” value in data set [1] is recorded as 51.91%. In addition, in data set [2], the “Specific Gravity” value worked out at 1.32 g/cm3, the “VOC (Without Water)” value is 54.6 g/L, the Viscosity was 95 KU and the “Volume Solid %” value came out at 41.1%. The “Weight Solid %” value in data set [2] turned out to be 54.6%. Besides, in data set [3], the “Specific Gravity” value came out at 1.33 g/cm3, the “VOC (Without Water)” value turned out to be 103.3 g/L, the Viscosity stood at 95 KU and the “Volume Solid %” value is 41.0%. Further, the “Weight Solid %” value in data set [3] is given as 54.5%.
Take `CCCCOCC(C)OC(=O)OC(C)COCCCC` (centres unmarked) [XTR5, bis(1-butoxypropan-2-yl) carbonate]: in data set [1], the “Specific Gravity” value is listed as 1.25 g/cm3, the “VOC (Without Water)” value amounted to 45.0 g/L, the Viscosity is 90 KU and the “Volume Solid %” value amounted to 40.91%. Besides, in data set [1], the “Weight Solid %” value is listed as 51.91%. Further, in data set [2], the “Specific Gravity” value is listed as 1.32 g/cm3, the “VOC (Without Water)” value is given as 1.5 g/L, the Viscosity turned out to be 95 KU and the “Volume Solid %” value is recorded as 41.1%. Also, the “Weight Solid %” value in data set [2] was determined as 54.6%. In data set [3], the “Specific Gravity” value was 1.33 g/cm3, the “VOC (Without Water)” value was 59.6 g/L, the Viscosity was 95 KU and the “Volume Solid %” value is recorded as 41.0%. For the same compound, the “Weight Solid %” value in data set [3] is reported as 54.5%. In addition, in data set [4], the Clarity result is recorded as “Clear”; the “Colour (Alpha, max)” value was found to be 10; the Density entry was “(7.94 lb/gal)”; the “Evaporation Rate” value was “Slow and Close to Texanol”. In data set [4], the “Partial Coefficient (Range)” value is reported as 0.7-2.0, the “Texanol Solubility” value is “Soluble”, the VOC is listed as 0 g/L and the “Volatility (%)” value was found to be 100%. For the same compound, the “Water Solubility” value in data set [4] is “Not Soluble”. Further, in data set [4] (@15.5°), the “Specific Gravity” value was 0.956. The same compound gave a Density in data set [4] (@ 20° C.) of 0.951 g/mL. Besides, in data set [4] (@ 25° C.), the “Solubility in H2O” value is given as “Insoluble”, the “Vapour Pressure” value stood at 0.005 mm Hg and the Viscosity stood at 0.58 cP. Besides, the “Vapour Density (mm Hg Air = 1)” value in data set [4] (Air = 1) stood at 0.95. For the same compound, the “TGA Weight Loss” value in data set [4] (Ambient 115-240° C.) amounted to 97.94%. Besides, the “Evaporation Rate (n-Butyl Acetate = 1)” value in data set [4] (n-Butyl Acetate = 1) is recorded as 0.0004.
